Reference: the NIST ThermoML archive (doi:10.1021/je900131q)
“And” between values parts separate entries of the source, which are not always exact repeats. Equal entries are not always repeated.

Settings: Fluid (supercritical or subcritical phases); for mass density: Buoyancy - hydrostatic balance with magnetic suspension - one sinker; for viscosity: Vibrating wire viscometer

[He] [helium]
Settings	mass density	viscosity [mPa·s]
293.13 K, 27527 kPa	39.805 kg/m3	0.01975
293.14 K, 2446 kPa	3.967 kg/m3	0.01958
293.14 K, 16374 kPa	24.912 kg/m3	0.01958
293.14 K, 20744 kPa	30.969 kg/m3	0.01962
293.14 K, 27529 kPa	39.804 kg/m3	0.01975
293.15 K, 122.25 kPa	0.19885 kg/m3	0.01954
293.15 K, 245.73 kPa	0.40368 kg/m3	0.01958
293.15 K, 366.51 kPa	0.59858 kg/m3	0.01959
293.15 K, 366.53 kPa	0.60087 kg/m3	0.01959
293.15 K, 482.99 kPa	0.79042 kg/m3	0.01959
293.15 K, 483 kPa	0.79119 kg/m3	0.01959
293.15 K, 1219.9 kPa	1.9866 kg/m3	0.01959
293.15 K, 1827.5 kPa	2.9695 kg/m3	0.01958
293.15 K, 1827.6 kPa	2.9711 kg/m3	0.01958
293.15 K, 2466.2 kPa	3.9699 kg/m3	0.01958
293.15 K, 3714.2 kPa	5.9819 kg/m3	0.01957
293.15 K, 3714.3 kPa	5.9857 kg/m3	0.01956
293.15 K, 4978.6 kPa	7.974 kg/m3	0.01956
293.15 K, 4978.7 kPa	7.9747 kg/m3	0.01956
293.15 K, 4995.9 kPa	7.9672 kg/m3	0.01957
293.15 K, 7564.1 kPa	11.972 kg/m3	0.01955
293.15 K, 7564.2 kPa	11.972 kg/m3	0.01955
293.15 K, 8842.9 kPa	13.917 kg/m3 and 13.915 kg/m3	0.01955
293.15 K, 10227 kPa	15.922 kg/m3	0.01957
293.15 K, 12231 kPa	18.954 kg/m3	0.01956
293.15 K, 14295 kPa	21.949 kg/m3	0.01957
293.15 K, 14296 kPa	21.953 kg/m3	0.01957
293.15 K, 14320 kPa	21.908 kg/m3	0.01959
293.15 K, 16374 kPa	24.913 kg/m3	0.01958
293.15 K, 18460 kPa	27.833 kg/m3 and 27.831 kg/m3	0.0196
293.15 K, 20744 kPa	30.973 kg/m3	0.01963
293.15 K, 22880 kPa	33.856 kg/m3	0.01966
293.15 K, 22883 kPa	33.861 kg/m3	0.01966
293.15 K, 22973 kPa	33.811 kg/m3	0.01968
293.15 K, 25224 kPa	36.797 kg/m3	0.01972
293.15 K, 25329 kPa	37.097 kg/m3 and 37.099 kg/m3	0.01969
293.16 K, 245.73 kPa	0.40445 kg/m3	0.01958
293.16 K, 613.17 kPa	1.0037 kg/m3	0.01959
293.16 K, 613.18 kPa	1.0029 kg/m3	0.01959
293.16 K, 2447.5 kPa	3.9693 kg/m3 and 3.9647 kg/m3	0.01958
293.16 K, 3742.3 kPa	5.9974 kg/m3	0.01958
293.16 K, 4996.2 kPa	7.965 kg/m3	0.01957
293.16 K, 6263.9 kPa	9.9737 kg/m3 and 9.9745 kg/m3	0.01956
293.16 K, 6273.2 kPa	9.9551 kg/m3	0.01957
293.16 K, 7587 kPa	11.953 kg/m3	0.01957
293.16 K, 14320 kPa	21.907 kg/m3	0.01959
293.16 K, 22974 kPa	33.812 kg/m3	0.01968
293.16 K, 25225 kPa	36.795 kg/m3	0.01971
293.16 K, 30149 kPa	43.152 kg/m3	0.0198
293.16 K, 30150 kPa	43.152 kg/m3	0.0198
293.17 K, 3742.6 kPa	5.9981 kg/m3	0.01958
293.17 K, 6273.4 kPa	9.9566 kg/m3	0.01957
293.17 K, 6273.7 kPa	9.9551 kg/m3	0.01957
293.17 K, 7587.3 kPa	11.953 kg/m3	0.01957
293.17 K, 8869.8 kPa	13.892 kg/m3	0.01957
293.17 K, 10198 kPa	15.951 kg/m3 and 15.945 kg/m3	0.01955
293.17 K, 12237 kPa	18.892 kg/m3	0.01958
293.17 K, 18562 kPa	27.894 kg/m3	0.01962
293.18 K, 2466.6 kPa	3.9663 kg/m3	0.01959
293.18 K, 8870.2 kPa	13.894 kg/m3	0.01957
293.18 K, 10228 kPa	15.928 kg/m3	0.01958
293.18 K, 12237 kPa	18.892 kg/m3	0.01958
293.18 K, 16436 kPa	24.919 kg/m3	0.01961
293.18 K, 18563 kPa	27.897 kg/m3	0.01964
293.18 K, 22975 kPa	33.81 kg/m3	0.01968
293.19 K, 16436 kPa	24.919 kg/m3	0.01961
293.19 K, 18564 kPa	27.893 kg/m3	0.01963
293.2 K, 20756 kPa	30.909 kg/m3	0.01965
293.2 K, 20757 kPa	30.907 kg/m3	0.01966
293.21 K, 30174 kPa	43.24 kg/m3	0.0198
293.21 K, 30175 kPa	43.241 kg/m3 and 43.243 kg/m3	0.01979
293.22 K, 30175 kPa	43.244 kg/m3	0.0198
293.24 K, 1220.6 kPa	1.9766 kg/m3	0.01959
293.25 K, 1220.7 kPa	1.978 kg/m3	0.0196
293.25 K, 1827.1 kPa	2.949 kg/m3	0.01959
293.26 K, 613.3 kPa	0.99551 kg/m3	0.0196
293.26 K, 1827.3 kPa	2.9512 kg/m3	0.01959
293.27 K, 489.97 kPa	0.79365 kg/m3	0.0196
293.27 K, 490.02 kPa	0.79727 kg/m3	0.0196
293.27 K, 613.45 kPa	0.99623 kg/m3	0.0196
293.28 K, 121.3 kPa	0.19968 kg/m3	0.01954
293.28 K, 121.33 kPa	0.19895 kg/m3	0.01955
293.28 K, 244.14 kPa	0.39719 kg/m3	0.01958
293.28 K, 244.19 kPa	0.39791 kg/m3	0.01958
293.28 K, 366.66 kPa	0.59687 kg/m3	0.01959
293.28 K, 366.7 kPa	0.59542 kg/m3	0.01959

N#N [nitrogen]
Settings	mass density	viscosity [mPa·s]
293.11 K, 1737.3 kPa	20.04 kg/m3	0.01776
293.11 K, 8684.1 kPa	100.062 kg/m3	0.01931
293.11 K, 12288 kPa	140.108 kg/m3	0.02039
293.12 K, 3456.5 kPa	39.956 kg/m3	0.01807
293.12 K, 5188.4 kPa	60.007 kg/m3	0.01843
293.12 K, 6932.1 kPa	80.084 kg/m3	0.01884
293.12 K, 16079 kPa	180.081 kg/m3	0.02168
293.12 K, 22359 kPa	240.226 kg/m3	0.02399
293.12 K, 24666 kPa	260.273 kg/m3	0.0249
293.13 K, 14176 kPa	160.309 kg/m3	0.02101
293.14 K, 1741.7 kPa	20.088 kg/m3	0.01775
293.14 K, 5190.1 kPa	60.028 kg/m3	0.01841
293.14 K, 5191.3 kPa	60.033 kg/m3	0.0184
293.14 K, 6919.8 kPa	79.938 kg/m3	0.01881
293.14 K, 6919.9 kPa	79.937 kg/m3	0.01881
293.14 K, 18079 kPa	200.088 kg/m3	0.02238
293.15 K, 168.17 kPa	1.9327 kg/m3	0.01754
293.15 K, 257.03 kPa	2.9592 kg/m3	0.01755
293.15 K, 257.04 kPa	2.9569 kg/m3	0.01755
293.15 K, 260.16 kPa	2.9879 kg/m3	0.01754
293.15 K, 348.59 kPa	4.0063 kg/m3	0.01757
293.15 K, 348.6 kPa	4.0116 kg/m3	0.01756
293.15 K, 434.63 kPa	4.9978 kg/m3	0.01756
293.15 K, 438.44 kPa	5.0442 kg/m3	0.01758
293.15 K, 438.45 kPa	5.045 kg/m3	0.01758
293.15 K, 865.03 kPa	9.9564 kg/m3	0.01763
293.15 K, 865.04 kPa	9.9572 kg/m3	0.01763
293.15 K, 867.69 kPa	9.9877 kg/m3	0.01763
293.15 K, 3452.3 kPa	39.892 kg/m3	0.01805
293.15 K, 8683.4 kPa	100.04 kg/m3	0.01928
293.16 K, 87.06 kPa	1.0006 kg/m3	0.0175
293.16 K, 174.08 kPa	2.0011 kg/m3	0.01753
293.16 K, 6917.3 kPa	79.905 kg/m3	0.01881
293.16 K, 8683.4 kPa	100.03 kg/m3	0.01928
293.16 K, 10467 kPa	120.042 kg/m3	0.01983
293.16 K, 10724 kPa	122.91 kg/m3 and 122.9 kg/m3	0.01987
293.16 K, 20166 kPa	220.109 kg/m3	0.02316
293.16 K, 27067 kPa	279.903 kg/m3	0.02585
293.16 K, 30306 kPa	304.692 kg/m3	0.02713
293.17 K, 347.38 kPa	3.995 kg/m3	0.01756
293.17 K, 434.86 kPa	5.0007 kg/m3	0.01757
293.17 K, 30306 kPa	304.691 kg/m3	0.02714
293.18 K, 69.62 kPa	0.79943 kg/m3	0.01749
423.09 K, 1261.4 kPa	9.9995 kg/m3	0.02309
423.09 K, 2533.5 kPa	20.001 kg/m3	0.0232
423.09 K, 7760.6 kPa	60.009 kg/m3	0.02382
423.09 K, 19172 kPa	140.043 kg/m3	0.02569
423.09 K, 25569 kPa	180.07 kg/m3	0.02695
423.1 K, 377.31 kPa	2.9994 kg/m3	0.02301
423.1 K, 629.65 kPa	5.0007 kg/m3	0.02304
423.1 K, 5117.5 kPa	40.01 kg/m3	0.02347
423.1 K, 22320 kPa	160.186 kg/m3	0.02629
423.11 K, 100.56 kPa	0.79993 kg/m3	0.02294
423.11 K, 125.69 kPa	0.99956 kg/m3	0.02295
423.11 K, 251.45 kPa	1.9998 kg/m3	0.02299
423.11 K, 10470 kPa	79.969 kg/m3	0.0242
423.11 K, 13263 kPa	99.939 kg/m3	0.02464
423.12 K, 503.26 kPa	3.9997 kg/m3	0.02303
423.12 K, 16171 kPa	120.044 kg/m3	0.02513
423.15 K, 30228 kPa	206.995 kg/m3	0.02791
423.15 K, 30257 kPa	207.176 kg/m3	0.02792
423.16 K, 30225 kPa	206.975 kg/m3	0.02791
